The record followed here is ChEMBL document CHEMBL5247647, “Phenothiazine-Based LSD1 Inhibitor Promotes T-Cell Killing Response of Gastric Cancer Cells” (J Med Chem, 2023).

Some results are limits rather than exact numbers.

This test concerns the target Lysine-specific histone demethylase 1A (Homo sapiens, UniProt O60341). Put plainly: Inhibition of recombinant LSD1 (unknown origin) expressed in Escherichia coli BL21 (DE3) using H3K4me2 peptide as substrate incubated for 30 mins by fluorescence based microplate reader assay.
For orientation: IC50 means the concentration at which inhibition is half-maximal. As to `CN1CCN(CCCN2c3ccccc3Sc3ccccc32)CC1` [PERAZINE], the IC50 was 0.909 µM.
As for `CN(C)CCCN1c2ccccc2Sc2ccc(Cl)cc21` [CHLORPROMAZINE], the IC50 is 5.14 µM.
For the molecule `CN(C)CCCN1c2ccccc2Sc2ccc(C(F)(F)F)cc21` [TRIFLUPROMAZINE], the IC50 is over 10 µM.
The same measure for `CN(C)CCCN1c2ccccc2Sc2ccccc21` [PROMAZINE]: 4.71 µM.
